Reference: ChEMBL document CHEMBL4507295 (2021)

Key:
[1] = target: Testis-specific serine/threonine-protein kinase 3 (Homo sapiens) (UniProt Q96PN8); conditions: Compound concentration 1000.0 nM
[2] = target: Serine/threonine-protein kinase Nek3 (Homo sapiens) (UniProt P51956); conditions: Compound concentration 1000.0 nM
[3] = target: Tyrosine-protein kinase HCK (Homo sapiens) (UniProt P08631); conditions: Compound concentration 1000.0 nM
[4] = target: 1-phosphatidylinositol 3-phosphate 5-kinase (Homo sapiens) (UniProt Q9Y2I7); conditions: Compound concentration 1000.0 nM
[5] = target: Serine/threonine-protein kinase Nek6 (Homo sapiens) (UniProt Q9HC98); conditions: Compound concentration 1000.0 nM
Sequence of Serine/threonine-protein kinase Nek6 (Homo sapiens) (Q9HC98 whole entry): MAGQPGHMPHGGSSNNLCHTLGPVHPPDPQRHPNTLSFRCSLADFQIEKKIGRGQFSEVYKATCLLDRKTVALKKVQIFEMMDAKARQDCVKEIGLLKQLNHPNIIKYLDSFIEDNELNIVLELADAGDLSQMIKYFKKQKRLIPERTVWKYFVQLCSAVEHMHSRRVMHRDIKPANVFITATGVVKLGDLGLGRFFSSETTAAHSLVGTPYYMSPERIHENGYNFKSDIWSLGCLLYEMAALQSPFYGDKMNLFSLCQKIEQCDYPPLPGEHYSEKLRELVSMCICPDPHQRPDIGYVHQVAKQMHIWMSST

[6] = target: Activated CDC42 kinase 1 (Homo sapiens) (UniProt Q07912); conditions: Compound concentration 1000.0 nM
[7] = target: SRSF protein kinase 1 (Homo sapiens) (UniProt Q96SB4); conditions: Compound concentration 1000.0 nM
[8] = target: Tyrosine-protein kinase receptor Tie-1 (Homo sapiens) (UniProt P35590); conditions: Compound concentration 1000.0 nM
[9] = tested on: Epidermal growth factor receptor (Homo sapiens), P00533 [L858R]; conditions: Compound concentration 1000.0 nM
[10] = target: Cyclin-dependent kinase 9 (Homo sapiens) (UniProt P50750); conditions: Compound concentration 1000.0 nM
[11] = target: Cyclin-dependent kinase 7 (Homo sapiens) (UniProt P50613); conditions: Compound concentration 1000.0 nM
[12] = target: Ribosomal protein S6 kinase alpha-2 (Homo sapiens) (UniProt Q15349); conditions: Compound concentration 1000.0 nM
[13] = target: Fibroblast growth factor receptor 2 (Homo sapiens) (UniProt P21802); conditions: Compound concentration 1000.0 nM
[14] = target: Insulin receptor (Homo sapiens) (UniProt P06213); conditions: Compound concentration 1000.0 nM
[15] = target: Ribosomal protein S6 kinase alpha-3 (Homo sapiens) (UniProt P51812); conditions: Compound concentration 1000.0 nM
[16] = target: Phosphatidylinositol 5-phosphate 4-kinase type-2 gamma (Homo sapiens) (UniProt Q8TBX8); conditions: Compound concentration 1000.0 nM
Sequence of Phosphatidylinositol 5-phosphate 4-kinase type-2 gamma (Homo sapiens) (Q8TBX8 whole entry): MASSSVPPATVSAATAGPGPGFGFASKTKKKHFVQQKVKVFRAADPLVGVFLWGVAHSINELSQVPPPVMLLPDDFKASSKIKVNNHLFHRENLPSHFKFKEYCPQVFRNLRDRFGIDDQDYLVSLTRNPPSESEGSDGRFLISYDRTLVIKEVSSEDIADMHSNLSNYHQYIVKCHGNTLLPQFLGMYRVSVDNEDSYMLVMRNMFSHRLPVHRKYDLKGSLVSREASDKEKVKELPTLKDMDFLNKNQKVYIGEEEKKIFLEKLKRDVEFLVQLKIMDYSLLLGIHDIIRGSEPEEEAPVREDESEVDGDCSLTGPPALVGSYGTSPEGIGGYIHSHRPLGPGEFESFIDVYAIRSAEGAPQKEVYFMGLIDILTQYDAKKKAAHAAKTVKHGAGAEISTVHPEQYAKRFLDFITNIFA

[17] = target: Serine/threonine-protein kinase TAO3 (Homo sapiens) (UniProt Q9H2K8); conditions: Compound concentration 1000.0 nM
[18] = target: Cyclin-dependent kinase 4 (Homo sapiens) (UniProt P11802); conditions: Compound concentration 1000.0 nM
[19] = target: Tyrosine-protein kinase JAK1 (Homo sapiens) (UniProt P23458); conditions: Compound concentration 1000.0 nM
[20] = tested on: Receptor-type tyrosine-protein kinase FLT3 (Homo sapiens), P36888 [D835H]; conditions: Compound concentration 1000.0 nM
[21] = target: Hepatocyte growth factor receptor (Homo sapiens) (UniProt P08581); conditions: Compound concentration 1000.0 nM
[22] = target: Phosphatidylinositol 3-kinase catalytic subunit type 3 (Homo sapiens) (UniProt Q8NEB9); conditions: Compound concentration 1000.0 nM
Sequence of Phosphatidylinositol 3-kinase catalytic subunit type 3 (Homo sapiens) (Q8NEB9 whole entry): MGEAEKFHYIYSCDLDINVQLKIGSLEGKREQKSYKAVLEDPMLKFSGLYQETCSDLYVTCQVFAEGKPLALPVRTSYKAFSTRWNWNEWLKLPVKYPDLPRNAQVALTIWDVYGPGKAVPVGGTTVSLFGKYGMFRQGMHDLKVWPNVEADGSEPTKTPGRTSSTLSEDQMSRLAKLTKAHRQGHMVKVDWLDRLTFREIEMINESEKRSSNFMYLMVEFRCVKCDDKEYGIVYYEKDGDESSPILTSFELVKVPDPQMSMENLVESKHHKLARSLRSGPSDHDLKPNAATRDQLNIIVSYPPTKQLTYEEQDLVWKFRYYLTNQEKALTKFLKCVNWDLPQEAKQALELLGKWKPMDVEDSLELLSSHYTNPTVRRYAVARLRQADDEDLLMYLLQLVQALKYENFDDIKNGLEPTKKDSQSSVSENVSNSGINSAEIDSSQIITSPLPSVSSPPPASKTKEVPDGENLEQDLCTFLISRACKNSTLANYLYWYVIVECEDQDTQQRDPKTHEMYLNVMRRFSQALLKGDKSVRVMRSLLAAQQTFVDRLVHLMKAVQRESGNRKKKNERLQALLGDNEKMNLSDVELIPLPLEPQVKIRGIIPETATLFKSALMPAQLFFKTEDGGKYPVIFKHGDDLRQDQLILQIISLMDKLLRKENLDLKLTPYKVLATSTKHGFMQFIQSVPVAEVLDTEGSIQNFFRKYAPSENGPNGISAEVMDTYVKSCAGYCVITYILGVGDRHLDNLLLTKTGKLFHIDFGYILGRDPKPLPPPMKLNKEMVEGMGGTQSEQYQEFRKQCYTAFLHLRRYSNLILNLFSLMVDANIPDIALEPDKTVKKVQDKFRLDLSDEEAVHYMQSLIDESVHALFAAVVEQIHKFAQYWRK

[23] = target: Serine/threonine-protein kinase 10 (Homo sapiens) (UniProt O94804); conditions: Compound concentration 1000.0 nM
[24] = target: Death-associated protein kinase 3 (Homo sapiens) (UniProt O43293); conditions: Compound concentration 1000.0 nM
[25] = tested on: Epidermal growth factor receptor (Homo sapiens), P00533 [UNDEFINED MUTATION]; conditions: Compound concentration 1000.0 nM
[26] = target: Receptor-type tyrosine-protein kinase FLT3 (Homo sapiens) (UniProt P36888); conditions: Compound concentration 1000.0 nM
[27] = tested on: Mast/stem cell growth factor receptor Kit (Homo sapiens), P10721 [D816V]; conditions: Compound concentration 1000.0 nM
Sequence of Mast/stem cell growth factor receptor Kit (Homo sapiens), P10721 [D816V] (P10721 whole entry D816V): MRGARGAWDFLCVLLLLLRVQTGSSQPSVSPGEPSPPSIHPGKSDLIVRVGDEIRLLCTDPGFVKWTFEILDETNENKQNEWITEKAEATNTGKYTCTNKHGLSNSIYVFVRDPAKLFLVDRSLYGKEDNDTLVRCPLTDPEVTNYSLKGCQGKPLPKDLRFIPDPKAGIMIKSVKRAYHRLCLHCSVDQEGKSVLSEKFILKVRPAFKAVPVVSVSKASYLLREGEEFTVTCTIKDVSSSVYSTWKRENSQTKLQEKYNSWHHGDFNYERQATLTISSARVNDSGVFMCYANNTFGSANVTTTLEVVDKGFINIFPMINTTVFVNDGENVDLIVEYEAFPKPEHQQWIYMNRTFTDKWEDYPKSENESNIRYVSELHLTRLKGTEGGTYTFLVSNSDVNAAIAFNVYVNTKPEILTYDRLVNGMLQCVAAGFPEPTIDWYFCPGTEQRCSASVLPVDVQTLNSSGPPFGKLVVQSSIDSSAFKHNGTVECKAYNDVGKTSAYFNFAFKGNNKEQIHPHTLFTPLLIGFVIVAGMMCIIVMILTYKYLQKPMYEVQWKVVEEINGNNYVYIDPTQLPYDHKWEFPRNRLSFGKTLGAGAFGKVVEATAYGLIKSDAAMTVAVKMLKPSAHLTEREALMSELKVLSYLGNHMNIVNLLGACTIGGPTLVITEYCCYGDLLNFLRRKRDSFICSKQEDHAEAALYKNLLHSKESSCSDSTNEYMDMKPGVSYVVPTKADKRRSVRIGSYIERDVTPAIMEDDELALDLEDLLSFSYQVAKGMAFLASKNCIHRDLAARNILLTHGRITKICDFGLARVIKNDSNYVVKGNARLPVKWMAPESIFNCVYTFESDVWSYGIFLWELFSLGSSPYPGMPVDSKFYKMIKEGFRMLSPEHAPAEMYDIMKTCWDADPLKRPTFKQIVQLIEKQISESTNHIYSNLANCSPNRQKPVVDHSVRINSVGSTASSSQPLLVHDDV

[28] = target: Sigma non-opioid intracellular receptor 1 (Homo sapiens) (UniProt Q99720); conditions: Compound concentration 10.0 uM
Sequence of Sigma non-opioid intracellular receptor 1 (Homo sapiens) (Q99720 whole entry): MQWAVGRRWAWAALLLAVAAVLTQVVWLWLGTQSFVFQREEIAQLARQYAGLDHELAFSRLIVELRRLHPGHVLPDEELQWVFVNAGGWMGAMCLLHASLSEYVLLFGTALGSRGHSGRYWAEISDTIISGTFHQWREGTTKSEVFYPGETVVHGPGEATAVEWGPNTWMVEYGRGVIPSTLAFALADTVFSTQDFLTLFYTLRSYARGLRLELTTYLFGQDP

[29] = target: Non-receptor tyrosine-protein kinase TYK2 (Homo sapiens) (UniProt P29597); conditions: Compound concentration 1000.0 nM
[30] = tested on: Phosphatidylinositol 4,5-bisphosphate 3-kinase catalytic subunit alpha isoform (Homo sapiens), P42336 [H1047L]; conditions: Compound concentration 1000.0 nM
[31] = target: Serine/threonine-protein kinase DCLK2 (Homo sapiens) (UniProt Q8N568); conditions: Compound concentration 1000.0 nM
[32] = target: Tyrosine-protein kinase Fgr (Homo sapiens) (UniProt P09769); conditions: Compound concentration 1000.0 nM
[33] = target: Dual specificity mitogen-activated protein kinase kinase 5 (Homo sapiens) (UniProt Q13163); conditions: Compound concentration 1000.0 nM
[34] = target: Serine/threonine-protein kinase SIK3 (Homo sapiens) (UniProt Q9Y2K2); conditions: Compound concentration 1000.0 nM
[35] = target: Serine/threonine-protein kinase N2 (Homo sapiens) (UniProt Q16513); conditions: Compound concentration 1000.0 nM
[36] = target: Calcium-dependent protein kinase 1 (Plasmodium falciparum) (UniProt P62344); conditions: Compound concentration 1000.0 nM
[37] = target: Mitogen-activated protein kinase kinase kinase 19 (Homo sapiens) (UniProt Q56UN5); conditions: Compound concentration 1000.0 nM
[38] = target: Activin receptor type-2A (Homo sapiens) (UniProt P27037); conditions: Compound concentration 1000.0 nM
[39] = target: Receptor tyrosine-protein kinase erbB-2 (Homo sapiens) (UniProt P04626); conditions: Compound concentration 1000.0 nM
[40] = target: Mitogen-activated protein kinase 6 (Homo sapiens) (UniProt Q16659); conditions: Compound concentration 1000.0 nM
[41] = target: Serine/threonine-protein kinase PAK 6 (Homo sapiens) (UniProt Q9NQU5); conditions: Compound concentration 1000.0 nM
[42] = target: Cyclin-dependent kinase 11A (Homo sapiens) (UniProt Q9UQ88); conditions: Compound concentration 1000.0 nM
Sequence of Cyclin-dependent kinase 11A (Homo sapiens) (Q9UQ88 whole entry): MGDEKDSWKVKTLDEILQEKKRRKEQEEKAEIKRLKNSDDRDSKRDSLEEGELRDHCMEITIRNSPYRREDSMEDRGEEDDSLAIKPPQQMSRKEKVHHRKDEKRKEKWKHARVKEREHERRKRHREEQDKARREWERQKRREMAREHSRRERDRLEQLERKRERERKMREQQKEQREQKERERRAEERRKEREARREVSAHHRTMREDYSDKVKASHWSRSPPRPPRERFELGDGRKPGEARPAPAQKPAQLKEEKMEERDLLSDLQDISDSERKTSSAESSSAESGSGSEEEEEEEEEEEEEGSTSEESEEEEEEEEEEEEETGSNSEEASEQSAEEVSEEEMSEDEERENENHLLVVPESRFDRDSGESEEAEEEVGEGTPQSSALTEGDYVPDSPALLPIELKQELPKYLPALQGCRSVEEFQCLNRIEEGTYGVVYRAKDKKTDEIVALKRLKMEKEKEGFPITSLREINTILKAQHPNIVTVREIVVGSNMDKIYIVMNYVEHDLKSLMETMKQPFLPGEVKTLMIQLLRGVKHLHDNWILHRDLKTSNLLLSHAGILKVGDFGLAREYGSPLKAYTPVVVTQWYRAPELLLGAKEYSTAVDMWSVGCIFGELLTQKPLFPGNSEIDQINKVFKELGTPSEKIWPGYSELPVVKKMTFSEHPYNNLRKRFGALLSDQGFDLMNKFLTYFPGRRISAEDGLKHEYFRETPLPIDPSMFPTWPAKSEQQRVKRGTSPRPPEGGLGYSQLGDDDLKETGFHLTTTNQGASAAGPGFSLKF

[43] = target: Megakaryocyte-associated tyrosine-protein kinase (Homo sapiens) (UniProt P42679); conditions: Compound concentration 1000.0 nM
[44] = target: TGF-beta receptor type-2 (Homo sapiens) (UniProt P37173); conditions: Compound concentration 1000.0 nM
[45] = target: NT-3 growth factor receptor (Homo sapiens) (UniProt Q16288); conditions: Compound concentration 1000.0 nM

Sequence of Serine/threonine-protein kinase Nek3 (Homo sapiens) (P51956 whole entry): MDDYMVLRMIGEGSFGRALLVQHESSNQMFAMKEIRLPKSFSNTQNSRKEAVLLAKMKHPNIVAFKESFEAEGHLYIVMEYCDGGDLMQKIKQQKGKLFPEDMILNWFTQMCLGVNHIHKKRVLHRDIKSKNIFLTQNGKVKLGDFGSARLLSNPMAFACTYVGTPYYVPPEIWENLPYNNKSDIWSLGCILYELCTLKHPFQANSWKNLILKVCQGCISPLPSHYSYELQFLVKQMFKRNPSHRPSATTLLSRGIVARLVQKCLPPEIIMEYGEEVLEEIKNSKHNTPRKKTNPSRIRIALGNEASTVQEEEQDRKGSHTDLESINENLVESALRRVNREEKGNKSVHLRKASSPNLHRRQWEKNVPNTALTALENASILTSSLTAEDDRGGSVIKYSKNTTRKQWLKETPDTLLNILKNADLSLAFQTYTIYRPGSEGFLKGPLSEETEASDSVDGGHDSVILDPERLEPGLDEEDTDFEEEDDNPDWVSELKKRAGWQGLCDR
Sequence of Testis-specific serine/threonine-protein kinase 3 (Homo sapiens) (Q96PN8 whole entry): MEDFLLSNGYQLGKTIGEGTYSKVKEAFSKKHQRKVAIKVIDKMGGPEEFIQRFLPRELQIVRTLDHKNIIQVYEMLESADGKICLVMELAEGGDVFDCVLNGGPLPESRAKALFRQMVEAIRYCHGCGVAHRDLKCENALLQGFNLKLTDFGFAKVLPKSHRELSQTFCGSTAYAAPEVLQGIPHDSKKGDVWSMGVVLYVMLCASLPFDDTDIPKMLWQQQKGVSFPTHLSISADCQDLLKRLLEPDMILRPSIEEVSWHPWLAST
Sequence of Tyrosine-protein kinase HCK (Homo sapiens) (P08631 2-526 limits assumed): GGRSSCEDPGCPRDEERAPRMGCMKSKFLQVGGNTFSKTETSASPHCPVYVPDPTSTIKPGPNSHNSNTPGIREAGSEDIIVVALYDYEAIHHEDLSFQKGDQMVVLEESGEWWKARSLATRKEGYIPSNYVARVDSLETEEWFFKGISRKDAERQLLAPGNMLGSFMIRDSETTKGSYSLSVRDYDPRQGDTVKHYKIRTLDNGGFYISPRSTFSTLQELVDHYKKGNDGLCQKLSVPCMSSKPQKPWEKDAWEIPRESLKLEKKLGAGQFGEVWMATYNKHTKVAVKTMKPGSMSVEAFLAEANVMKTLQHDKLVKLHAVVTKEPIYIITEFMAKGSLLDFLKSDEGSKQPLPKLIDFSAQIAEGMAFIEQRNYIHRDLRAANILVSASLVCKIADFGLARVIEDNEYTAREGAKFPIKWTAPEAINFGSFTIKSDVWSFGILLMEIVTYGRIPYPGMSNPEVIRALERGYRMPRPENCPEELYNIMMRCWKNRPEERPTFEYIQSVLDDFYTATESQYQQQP

N#CC1(c2ccccn2)CCN(Cc2cc(C(=O)N3CCCC3)c(=O)n3ccccc23)CC1
inactive: residual activity [1] 100% | residual activity [2] 83% | residual activity [3] 100% | residual activity [4] 76% | residual activity [5] 100% | residual activity [6] 85% | residual activity [7] 85% | residual activity [8] 98% | residual activity [9] 87% | residual activity [10] 88% | residual activity [11] 82% | residual activity [12] 88% | residual activity [13] 91% | residual activity [14] 88% | residual activity [15] 100% | residual activity [16] 58% | residual activity [17] 100% | residual activity [18] 98% | residual activity [19] 95% | residual activity [20] 87% | residual activity [21] 95% | residual activity [22] 89% | residual activity [23] 95% | residual activity [24] 86% | residual activity [25] 67% | residual activity [26] 98% | residual activity [27] 100% | inhibition [28] 16.3% | residual activity [29] 91% | residual activity [30] 100% | residual activity [31] 100% | residual activity [32] 100% | residual activity [33] 100% | residual activity [34] 100% | residual activity [35] 88% | residual activity [36] 84% | residual activity [37] 100% | residual activity [38] 78% | residual activity [39] 95% | residual activity [40] 79% | residual activity [41] 100% | residual activity [42] 93% | residual activity [43] 76% | residual activity [44] 93% | residual activity [45] 100%

N#CC1(c2ccccn2)CCN(Cc2cc(C(=O)O)c(=O)n3ccccc23)CC1 [MSD-M1PAM]
inactive: residual activity [1] 100% | residual activity [2] 66% | residual activity [3] 100% | residual activity [4] 97% | residual activity [5] 100% | residual activity [6] 99% | residual activity [7] 100% | residual activity [8] 100% | residual activity [9] 86% | residual activity [10] 99% | residual activity [11] 58% | residual activity [12] 100% | residual activity [13] 100% | residual activity [14] 74% | residual activity [15] 100% | residual activity [16] 99% | residual activity [17] 78% | residual activity [18] 82% | residual activity [19] 100% | residual activity [20] 100% | residual activity [21] 84% | residual activity [22] 70% | residual activity [23] 100% | residual activity [24] 95% | residual activity [25] 100% | residual activity [26] 80% | residual activity [27] 100% | inhibition [28] 29.1% | residual activity [29] 99% | residual activity [30] 80% | residual activity [31] 100% | residual activity [32] 94% | residual activity [33] 62% | residual activity [34] 97% | residual activity [35] 100% | residual activity [36] 88% | residual activity [37] 77% | residual activity [38] 95% | residual activity [39] 96% | residual activity [40] 100% | residual activity [41] 100% | residual activity [42] 100% | residual activity [43] 84% | residual activity [44] 93% | residual activity [45] 70%
